Measurements as given in patent publication EP3878460A1, “GREEN TEA EXTRACT HAVING MODIFIED CONSTITUENT CONTENT AND COMPOSITION COMPRISING SAME” (priority 2018, dated 2020).

Key:
[1] = tested on: hepatocytes (HepG2 cells); experiment: Hepacytotoxicity, cell viability by MTS assay
Protocol: In order to investigate the hepatotoxicity of the high-temperature-processed green tea extract obtained in Example 1 (sample 2), hepatocytes (HepG2 cells) acquired from Korean Cell Line Bank were seeded onto a 96-well plate (Falcon) with 1×10^5 cells per well and cultured for 24 hours in a 5% CO2 incubator at 37 °C. Then, after treating with the sample 1 or sample 2 at 5, 10, 25, 50 or 100 µg/mL and culturing further for 24 hours, the medium was removed and cell viability was investigated using a CellTiter 96 AQueous One Solution cell proliferation assay kit (MTS, Promega Co. Madison, WI, USA). After treating the cells with 20 µL of a CellTiter 96 AQueous One Solution cell proliferation assay kit (MTS, Promega Co. Madison, WI, USA) solution added to 100 µL of RPMI1640 (Lonza), the number of live cells was quantified by measuring absorbance at 490 nm. The cell number or cell viability (%) was calculated by the following equation. Cell viability (%) = (absorbanceofsample-treatedgroup−absorbanceofreagentalone)/(absorbanceofnon-treatedgroup−absorbanceofreagentalone) × 100 [formula]
After treating the cells with 20 µL of a CellTiter 96 AQueous One Solution cell proliferation assay kit (MTS, Promega Co. Madison, WI, USA) solution added to 100 µL of RPMI1640 (Lonza), the number of live cells was quantified by measuring absorbance at 490 nm. The cell number or cell viability (%) was calculated as described in Test Example 1.

[2] = tested on: hepatocytes (HepG2 cells); type: cell-based, human
Protocol: The experimental condition was the same as in Test Example 1. After treating the cells with the sample 1 or sample 2, the levels of malate dehydrogenase 1 (MDH 1), α-glutathione S-transferase (GSTα) and sorbitol dehydrogenase (SDH) in the cell culture were measured 24 later.
In order to investigate the effect of the EGCG, GCG and EGC among the eight catechins on hepatocyte damage, release of enzymes from hepatocytes due to hepatocyte damage was analyzed using the MILLIPLEX Analyst software (Millipore). The experimental condition was the same as in Test Example 3. After treating the cells with EGCG, GCG or EGC, the levels of malate dehydrogenase 1 (MDH 1), α-glutathione S-transferase (GSTα) and sorbitol dehydrogenase (SDH) in the cell culture were measured 24 later.

[3] = tested on: HepG2 human liver cancer cells; experiment: Inhibition of lipid accumulation in hepatocytes (Oil Red O staining, stearic acid load); type: cell-based; conditions: 100 µM stearic acid, 48 hours, FIG. 8
Protocol: In order to investigate the effect of inhibiting lipid accumulation in hepatocytes of the green tea extract sample 1 and sample 2 of Example 1, the inhibition of fat accumulation was compared after culturing HepG2 human liver cancer cells and treating with each sample.
Specifically, hepatocytes (HepG2 cells) were seeded onto a 12-well plate (Falcon) with 1×10^6 cells per well and cultured in a 5% CO2 incubator at 37 °C for 24 hours. Then, after treating with each of the sample 1 and the sample 2 at 3, 10 or 30 µg/mL and 100 µM stearic acid conjugated with bovine serum albumin (BSA), the cells were cultured for 48 hours. After removing the medium and washing with PBS, the cells were fixed with 4% formaldehyde. After incubating with 100% propylene glycol for 5 minutes, the fat in the cells was stained by adding 500 µL of Oil Red O solution (Sigma) per well and culturing the cells for 2 hours. […] After transferring 200 µL of the isopropanol solution to a 96-well plate, the fat accumulated in the cells was quantified by measuring absorbance at 485 nm. The Oil Red O content (%) relative to a control group (0.1% (v/v) DMSO) was calculated by the following equation. Oil red O content (%) = (absorbanceofsample-treatedgroup−absorbanceofcontrolgroup) × 100 [formula] […]

[4] = HepG2 cells, 10, 50, 100 or 200 µM, 24 hours, calculated from cell viability

Compound	LD50 [1, 4] [µM]	also measured
Oc1cc(O)c2c(c1)O[C@H](c1ccc(O)c(O)c1)[C@H](O)C2 [EC, (-)epicatechin]	–	LD50 ([1]; human, 24 h): 505.0 µM
Oc1cc(O)c2c(c1)O[C@H](c1cc(O)c(O)c(O)c1)[C@H](O)C2 [EGC, epigallocatechin]	183.9	hepacytotoxicity among the eight catechins [1]: highest hepacytotoxicity; levels of the three enzymes (MDH 1, GSTα, SDH) in the cell culture [2]: highest
epicatechin 3-O-gallate [ECG]	209.0	–
O=C(O[C@@H]1Cc2c(O)cc(O)cc2O[C@H]1c1cc(O)c(O)c(O)c1)c1cc(O)c(O)c(O)c1 [GCG, gallocatechin gallate]	212.7	effect of inhibiting lipid accumulation in hepatocytes compared to EGCG at the same concentration [3]: remarkably excellent effect of inhibiting lipid accumulation in hepatocytes
Oc1cc(O)c2c(c1)O[C@H](c1cc(O)c(O)c(O)c1)[C@@H](O)C2 [GC, gallocatechin]	236.2	–
O=C(O[C@@H]1Cc2c(O)cc(O)cc2O[C@@H]1c1cc(O)c(O)c(O)c1)c1cc(O)c(O)c(O)c1 [EGCG, epigallocatechin gallate]	355.5	–
